Assay results as given in PubChem BioAssay AID1224901.

Tested on: MCF7 viability, PrestoBlue fluorescence
Experiment: antiproliferative effect, MCF7 breast cancer line – cell-based, mTOR inhibitor project, dose response (AID 1224901)

EC50: 8 nM
Compound: CCOC(Cn1nc(-c2ccc3oc(N)nc3c2)c2c(N)ncnc21)OCC
